Results as given in patent US12616711B2, “Therapeutic dendrimer” (Starpharma Pty Ltd, priority 2019, dated 2026).

Tests used:
[1] = test system: CAPAN-1 cells; assay: alamarBlue viability assay, GI50; type: cell-based, human; conditions: 144 h, given in μM Gemcitabine
Protocol: (§1) A study was carried out to determine the ability of example dendrimers to inhibit growth of cancer cell lines using an alamarBlue viability assay (Thermo Fisher, DAL1025).
(§2) The cytotoxicity of compounds toward MDA-MB-231, A549, H460, BxPC3 and CAPAN-1 cells were evaluated for viability. Cells were seeded at a density of 1.2-5×10^3 cells, dependent on cell growth rate, in 96 well plates and incubated overnight. Cells were then treated with serial dilutions of test compositions for 72 h (MDA-MB-231, A549 and H460 lines) or 144 h (BxPC3 and CAPAN-1 lines). For cell viability analysis, 10% media volume of alamar Blue was added during the final 6-8 h of incubation. Reduction of alamarBlue in living cells yields a red fluorescent metabolite that can be read on a plate reader (560 nm excitation/610 nm emission.). Cell viability and subsequent GI50 values were was determined from the blank corrected dose-response curves, with 4-parameter nonlinear curve fit, in GraphPad Prism.

[2] = test system: A549 cells; assay: alamarBlue viability assay, GI50; type: cell-based, human; conditions: 72 h, given in μM Gemcitabine
Protocol: as §1, §2

[3] = test system: CAPAN-1 tumour xenografts; assay: CAPAN-1 mouse xenograft, alone or with Abraxane or DEP-DTX (Examples 13a, 13b); type: in vivo; conditions: day 29; i.v.; Gemcitabine 120, Abraxane 40, 3 at 6.5, 6 at 5 (day 1) then 4, DEP-DTX 24 (10 in combination) mg/kg
Protocol: Mice were inoculated and tumours sized as described above. On day nineteen after implantation, mice with similar sized tumours (mean tumour volume 100 mm^3) were randomised into 7 groups of 10 animals. […] Abraxane® was dissolved in saline solution immediately prior to dosing.
Abraxane®, gemcitabine and dendrimers were administered at days 1, 10, and 17 via tail vein i.v. injection, at 0.1 ml/10 g body weight.
In an extension of Example 13a, two additional groups of mice were prepared and dosed to assess the anti-tumour efficacy properties of a taxane-dendrimer combined with a nucleoside analogue-dendrimer (e.g. 6). Mice were inoculated and tumours sized as described above.
Dendrimers were administered weekly via tail vein i.v. injection, at 0.1 ml/10 g body weight for 3 weeks.
All statistical analyses were performed using GraphPad Prism 8.1.

[4] = Plasma release study; type: in vitro ADME; conditions: 37° C.
Protocol: The plasma was placed in a CO2 incubator at 3% CO2 at 42% relative humidity to reach a pH of 7.4.
Gemcitabine HCl (28.5 mg) was dissolved in Milli Q water and the resulting stock solution transferred to a 5 mL volumetric flask and diluted to provide working standard solutions.
The plasma release study was conducted by adding 1 mL of plasma (centrifuged and filtered) to 0.2 mL of dendrimer solution (approximately 2 mg/mL gemcitabine equivalent in miliQ water) for example dendrimers and a comparator. The mixtures were vortexed (30 sec) then incubated at 37° C. 5% CO2. At various timepoints aliquots (0.1 mL) were removed and added to ACN (0.2 mL). The resulting mixtures were vortexed (30 s), centrifuged (10 min, 4° C.), filtered and analysed by HPLC (C8 Xbridge, 3×100 mm, […], 0.4 mL/min., gradient: 5% ACN/H2O) (0-1 min), 5-80% ACN (1-7 min), 80% ACN (7-12 min), 80-5% ACN (12-13 min), 5% ACN (13-15 min), 100 mM ammonium formate buffer, column temperature 50° C., sample tray 4° C., 260 nm.

[5] = test system: BxPC3 cells; assay: alamarBlue viability assay, GI50; type: cell-based; conditions: BxPC-3, 144 h, given in μM Gemcitabine
Protocol: as §1, §2

[6] = test system: MDA-MB-231 cells; assay: alamarBlue viability assay, GI50; type: cell-based; conditions: 72 h, given in μM Gemcitabine
Protocol: as §1, §2

[7] = test system: H460 cells; assay: alamarBlue viability assay, GI50; type: cell-based; conditions: given in μM Gemcitabine
Protocol: as §1, §2

[8] = test system: CAPAN-1 tumour xenografts; assay: CAPAN-1 mouse xenograft pancreatic cancer model, efficacy vs gemcitabine (Example 11); type: in vivo; conditions: for survival compared to Gemcitabine (Kaplan-Meier): P<0.0001 Mantel Cox, Gemcitabine 120 mg/kg; for Tumour Growth inhibition (%) v vehicle: day 29, Gemcitabine 120, 1 at 2, 4 at 5, 2 at 5, 5 at 3 mg/kg; for Tumour Growth inhibition (%) v vehicle / effect on CAPAN-1 tumours over the dosing study (FIG. 4): i.v. twice weekly for 3 weeks; for effect on CAPAN-1 tumours over the dosing study (FIG. 4): 4 at 5, 2 at 5, 5 at 3 mg/kg
Protocol: A CAPAN-1 (human pancreatic adenocarcinoma cell line) mouse xenograft pancreatic cancer model study was carried out to assess the anti-tumour efficacy properties of example dendrimers compared to gemcitabine.
Compounds 1, 4, 2 and 5 were prepared by dissolving in sterile saline solution immediately prior to dosing and. Gemcitabine ((DBL™ Gemcitabine injection, Hospira Pty Ltd.) was further diluted in saline solution prior to dosing.
Female NOD-SCID Interleukin-2 receptor gamma chain null mice (aged 9 weeks) were inoculated subcutaneously on the flank with 5×10^6 CAPAN-1 cells in PBS:Matrigel (1:1). Mice were weighed and tumours measured twice weekly using electronic callipers. Tumour volume (mm^3) was calculated as length (mm)/2×width (mm)^2. On day seventeen after implantation, mice with similar sized tumours (mean tumour volume 100 mm^3) were randomised into 6 groups of 10 animals.
Compounds were administered via tail vein i.v. injection, twice weekly at […] for 3 weeks. Groups were dosed as follows: • 1. Saline—vehicle • 2. Gemcitabine (120 mg/kg, i.v.) • 3. 1 (2 mg/kg, i.v.) • 4. 4 (5 mg/kg, i.v.) • 5. 2 (5 mg/kg, i.v.) • 6. 5 (3 mg/kg, i.v.)
Tumour growth inhibition was analysed at day 29 (where all vehicle animals remained in the study) using one-way ANOVA followed by Dunnett's multiple comparison test. Tumour growth curves of gemcitabine and DEP-gemcitabine were compared over 47 days (when all treatment group animals remained in the study for tumour-related endpoints) using a mixed-effects model followed by Tukey's multiple comparison test. […] All statistical analysis was performed using GraphPad Prism 8.1.

[9] = test system: CAPAN-1 tumour xenografts; assay: CAPAN-1 mouse xenograft, dosing regimen study (Example 12); type: in vivo; conditions: 5 mg/kg i.v. weekly for 3 weeks compared to 2 mg/kg i.v. biweekly for 3 weeks
Protocol: A CAPAN-1 (human pancreatic adenocarcinoma cell line) mouse xenograft pancreatic cancer model was established to assess the effects of weekly compared to biweekly administration of an example dendrimer.
Compound 1 was prepared as described above. Mice were inoculated and tumours sized as described above. On day seventeen after implantation, mice with similar sized tumours (mean tumour volume 140 mm^3) were randomised into 2 groups of 5 animals: • 1. 1 (5 mg/kg, i.v.) weekly for 3 weeks; and • 2. 1 (2 mg/kg, i.v.) biweekly for 3 weeks.

Compound	GI50 [1]	GI50 [2]	Tumour Growth inhibition (%) v vehicle at day 29 [3]	GI50 [5]	GI50 [6]	GI50 ([7]; 72 h)	survival compared to Gemcitabine (Kaplan-Meier) [8]	Tumour Growth inhibition (%) v vehicle [8]	effect on CAPAN-1 tumours over the dosing study (FIG. 4) [8]	also measured
[BHA Lys][Lys]30[Lys]32 [Compound 6, [BHA Lys][Lys]30[Lys]32 [(α-NH-DGA-Gemcitabine)32 (ε-NHPEG˜2100)32]]	0.006 µM	0.045 µM	83%	0.001 µM	0.005 µM	0.056 µM	–	–	–	Human Plasma % release ([4]; 0 h): 0.49%; Human Plasma % release ([4]; 2 h): 9.94%; Human Plasma % release ([4]; 4 h): 18.18%; Human Plasma % release ([4]; 6 h): 39.84%; Human Plasma % release ([4]; 24 h): 71.13%; Human Plasma % release ([4]; 30 h): 77.98%
[BHA Lys][Lys]30[Lys]32 [Compound 4, [BHA Lys][Lys]30[Lys]32 [(α-NH-DGA-Gemcitabine)32 (ε-NHPEG˜570)32]]	0.011 µM	0.031 µM	–	0.013 µM	0.003 µM	0.061 µM	significantly extended survival beyond that of Gemcitabine	91%	complete stasis	–
[BHA Lys][Lys]30[Lys]32 [Compound 2, [BHA Lys][Lys]30[Lys]32 [(α-NH-TDA-Gemcitabine)32 (ε-NHPEG570)32]]	0.021 µM	0.034 µM	–	–	0.004 µM	0.412 µM	significantly extended survival beyond that of Gemcitabine	94%	complete stasis	–
BHALys[Lys]32[α-TDA-DTX]32[ε-PolyPEG2000]32 [DEP-DTX, reference compound]	–	–	108%	–	–	–	–	–	–	–
[BHA Lys][Lys]30[Lys]32 [Compound 1, [BHA Lys][Lys]30[Lys]32 [(α-NH-TDA-Gemcitabine)32 (ε-NHPEG˜1100)32]]	0.033 µM	0.051 µM	–	0.007 µM	–	0.215 µM	–	75%	–	suppression of tumour growth, weekly vs biweekly regimen (FIG. 5) [9]: more effective at suppressing tumour growth than 1, given biweekly at 2 mg/kg
[BHA Lys][Lys]30[Lys]32 [Compound 5, [BHA Lys][Lys]30[Lys]32 [(α-NH-DGA-Gemcitabine)32 (ε-NHPEG˜1100)32]]	0.003 µM	0.044 µM	–	–	0.003 µM	0.046 µM	significantly extended survival beyond that of Gemcitabine	94%	complete stasis	–
Nc1ccn([C@@H]2O[C@H](CO)[C@@H](O)C2(F)F)c(=O)n1 [Gemcitabine, gemcitabine, reference compound]	–	–	59%	–	–	–	–	84%	–	GI50 ([1]; Homo sapiens): 0.009 µM; GI50 ([2]; Homo sapiens): 0.011 µM; GI50 ([5]; Homo sapiens): 0.009 µM; GI50 ([6]; Homo sapiens): 0.004 µM; GI50 ([7]; Homo sapiens, NCI-H460, 72 h): 0.042 µM
[BHA Lys][Lys]30[Lys]32 [Compound 8, [BHA Lys][Lys]30[Lys]32 [(α-NH-Glu-Gemcitabine)32 (ε-NHPEG˜2100)32]]	–	0.5 µM	–	–	0.103 µM	–	–	–	–	Human Plasma % release ([4]; 0 h): −0.17%; Human Plasma % release ([4]; 2 h): 0.22%; Human Plasma % release ([4]; 4 h): −1.99%; Human Plasma % release ([4]; 6 h): 3.02%; Human Plasma % release ([4]; 24 h): 6.19%; Human Plasma % release ([4]; 30 h): 5.39%
